The structures appear in SMILES notation. Numbers after ± are expanded uncertainties.

The data set can be described thus: activity coefficient (dimensionless); of the first substance listed, at infinite dilution; xn = mol fraction of the nth substance listed. The conditions noted are these: 101.3 kPa, Liquid, Chromatography, x1 = 0.

`Cc1cccc(C)c1` [1,3-dimethylbenzene] + CCn1cc[n+](C)c1.COP(=O)([O-])OC: the activity coefficient (313.15 K) was determined as 12.4 ± 1.3; the activity coefficient (323.15 K) stood at 11.8 ± 1.2; the activity coefficient (333.15 K) came to 11.2 ± 1.2; the activity coefficient (343.15 K) was found to be 10.8 ± 1.1; the activity coefficient (353.15 K) was 10.5 ± 1.1; the activity coefficient (363.15 K) worked out at 9.99 ± 1.1.
Consider `CCCCCCCCC` [nonane] + CCn1cc[n+](C)c1.COP(=O)([O-])OC, for which the activity coefficient runs as follows: (313.15 K) 272 ± 29; (323.15 K) 243 ± 26; (333.15 K) 225 ± 24; (343.15 K) 207 ± 22; (353.15 K) 197 ± 21; (363.15 K) 182 ± 19.
Take `CC1CCCCC1` [methylcyclohexane] + CCn1cc[n+](C)c1.COP(=O)([O-])OC: the activity coefficient came out at 77.7 ± 8.2 (313.15 K); 68.3 ± 7.2 (323.15 K); 61.5 ± 6.5 (333.15 K); 55.9 ± 5.9 (343.15 K); 50.5 ± 5.3 (353.15 K); 45.5 ± 4.8 (363.15 K).
For `C=Cc1ccccc1` [styrene] + CCn1cc[n+](C)c1.COP(=O)([O-])OC, the activity coefficient was found to be 5.45 ± 0.57 (313.15 K); 5.29 ± 0.56 (323.15 K); 5.16 ± 0.54 (333.15 K); 5.01 ± 0.53 (343.15 K); 4.86 ± 0.51 (353.15 K); 4.71 ± 0.49 (363.15 K).
For `C1=CCCCC1` [cyclohexene] + CCn1cc[n+](C)c1.COP(=O)([O-])OC, the activity coefficient (313.15 K) worked out at 25.4 ± 2.7; the activity coefficient (323.15 K) was determined as 22.4 ± 2.4; the activity coefficient (333.15 K) stood at 20 ± 2.1; the activity coefficient (343.15 K) is 18.7 ± 2; the activity coefficient (353.15 K) was determined as 16.9 ± 1.8; the activity coefficient (363.15 K) was 15.5 ± 1.6.
For the molecule `CCCCCCCCCC` [decane] + COP(=O)([O-])OC.Cn1cc[n+](C)c1, the activity coefficient is 503 ± 53 (313.15 K); 480 ± 51 (323.15 K); 466 ± 49 (333.15 K); 448 ± 47 (343.15 K); 431 ± 46 (353.15 K); 414 ± 44 (363.15 K).
With `CC(C)CC(C)(C)C` [2,2,4-trimethylpentane] + COP(=O)([O-])OC.Cn1cc[n+](C)c1, the activity coefficient reads like this: (313.15 K) 318 ± 34; (323.15 K) 301 ± 32; (333.15 K) 284 ± 30; (343.15 K) 270 ± 28; (353.15 K) 244 ± 26; (363.15 K) 229 ± 24.
`CCCCCCCCC` [nonane] + COP(=O)([O-])OC.Cn1cc[n+](C)c1: the activity coefficient runs as follows: (313.15 K) 400 ± 42; (323.15 K) 384 ± 40; (333.15 K) 368 ± 39; (343.15 K) 351 ± 37; (353.15 K) 345 ± 36; (363.15 K) 327 ± 34.
Regarding `c1ccccc1` [benzene] + CCn1cc[n+](C)c1.COP(=O)([O-])OC, the activity coefficient runs as follows: (313.15 K) 3.51 ± 0.37; (323.15 K) 3.33 ± 0.35; (333.15 K) 3.2 ± 0.34; (343.15 K) 3.12 ± 0.33; (353.15 K) 3.02 ± 0.32; (363.15 K) 2.87 ± 0.3.
In the case of `C1CCCCC1` [cyclohexane] + COP(=O)([O-])OC.Cn1cc[n+](C)c1, the activity coefficient reads like this: (313.15 K) 58.4 ± 6.2; (323.15 K) 56 ± 5.9; (333.15 K) 52.6 ± 5.5; (343.15 K) 50.9 ± 5.4; (353.15 K) 48 ± 5.1; (363.15 K) 45.7 ± 4.8.
Regarding `CCCCCC` [hexane] + CCn1cc[n+](C)c1.COP(=O)([O-])OC, the activity coefficient is, setting by setting: (313.15 K) 139 ± 15; (323.15 K) 122 ± 13; (333.15 K) 107 ± 11; (343.15 K) 87.6 ± 9.2; (353.15 K) 72.2 ± 7.6; (363.15 K) 61.5 ± 6.5.
With `CC1CCCCC1` [methylcyclohexane] + COP(=O)([O-])OC.Cn1cc[n+](C)c1, the activity coefficient runs as follows: (313.15 K) 83.4 ± 8.8; (323.15 K) 80.8 ± 8.5; (333.15 K) 78.3 ± 8.2; (343.15 K) 75.4 ± 7.9; (353.15 K) 73 ± 7.7; (363.15 K) 69.9 ± 7.4.
Take `CCCCCCC` [heptane] + COP(=O)([O-])OC.Cn1cc[n+](C)c1: the activity coefficient runs as follows: (313.15 K) 297 ± 31; (323.15 K) 279 ± 29; (333.15 K) 258 ± 27; (343.15 K) 243 ± 26; (353.15 K) 231 ± 24; (363.15 K) 216 ± 23.
In the case of `C1=CCCCC1` [cyclohexene] + COP(=O)([O-])OC.Cn1cc[n+](C)c1, the activity coefficient (313.15 K) stood at 32.7 ± 3.5; the activity coefficient (323.15 K) stood at 31.6 ± 3.3; the activity coefficient (333.15 K) is 30.7 ± 3.2; the activity coefficient (343.15 K) was determined as 30.1 ± 3.2; the activity coefficient (353.15 K) turned out to be 29.1 ± 3.1; the activity coefficient (363.15 K) was found to be 28.3 ± 3.
As for `Cc1ccc(C)cc1` [1,4-dimethylbenzene] + COP(=O)([O-])OC.Cn1cc[n+](C)c1, the activity coefficient reads like this: (313.15 K) 13.8 ± 1.4; (323.15 K) 13.6 ± 1.4; (333.15 K) 13.5 ± 1.4; (343.15 K) 13.4 ± 1.4; (353.15 K) 13.2 ± 1.4; (363.15 K) 13.1 ± 1.4.
For the molecule `CCCCCCCC` [octane] + COP(=O)([O-])OC.Cn1cc[n+](C)c1, the activity coefficient (313.15 K) was determined as 340 ± 36; the activity coefficient (323.15 K) turned out to be 325 ± 34; the activity coefficient (333.15 K) is 302 ± 32; the activity coefficient (343.15 K) is 285 ± 30; the activity coefficient (353.15 K) stood at 270 ± 28; the activity coefficient (363.15 K) amounted to 248 ± 26.
Consider `Cc1ccccc1` [toluene] + CCn1cc[n+](C)c1.COP(=O)([O-])OC, for which the activity coefficient (313.15 K) is 6.45 ± 0.68; the activity coefficient (323.15 K) worked out at 6.14 ± 0.65; the activity coefficient (333.15 K) came out at 5.94 ± 0.62; the activity coefficient (343.15 K) is 5.73 ± 0.6; the activity coefficient (353.15 K) worked out at 5.56 ± 0.58; the activity coefficient (363.15 K) is 5.4 ± 0.57.
Regarding `CCCCC` [pentane] + CCn1cc[n+](C)c1.COP(=O)([O-])OC, the activity coefficient amounted to 125 ± 13 (313.15 K); 106 ± 11 (323.15 K); 88.5 ± 9.3 (333.15 K); 69.8 ± 7.4 (343.15 K); 60.5 ± 6.4 (353.15 K); 52.9 ± 5.6 (363.15 K).
For `CCCCCC` [hexane] + COP(=O)([O-])OC.Cn1cc[n+](C)c1, the activity coefficient reads like this: (313.15 K) 260 ± 27; (323.15 K) 246 ± 26; (333.15 K) 230 ± 24; (343.15 K) 218 ± 23; (353.15 K) 203 ± 21; (363.15 K) 187 ± 20.
For the molecule `Cc1ccccc1C` [1,2-dimethylbenzene] + CCn1cc[n+](C)c1.COP(=O)([O-])OC, the activity coefficient (313.15 K) turned out to be 10.2 ± 1.1; the activity coefficient (323.15 K) came to 9.8 ± 1; the activity coefficient (333.15 K) is 9.59 ± 1; the activity coefficient (343.15 K) came out at 9.3 ± 0.98; the activity coefficient (353.15 K) came to 9.14 ± 0.96; the activity coefficient (363.15 K) stood at 9 ± 0.95.
Turning to `C=Cc1ccccc1` [styrene] + COP(=O)([O-])OC.Cn1cc[n+](C)c1, the activity coefficient by setting is: (323.15 K) 6.62 ± 0.7; (333.15 K) 6.61 ± 0.69; (343.15 K) 6.6 ± 0.69; (353.15 K) 6.58 ± 0.69; (363.15 K) 6.57 ± 0.69.
As to `Cc1ccccc1C` [1,2-dimethylbenzene] + COP(=O)([O-])OC.Cn1cc[n+](C)c1, the activity coefficient reads like this: (313.15 K) 12.7 ± 1.3; (323.15 K) 12.5 ± 1.3; (333.15 K) 12.4 ± 1.3; (343.15 K) 12.2 ± 1.3; (353.15 K) 12.1 ± 1.3; (363.15 K) 12 ± 1.3.
Consider `CCCCCCCCCC` [decane] + CCn1cc[n+](C)c1.COP(=O)([O-])OC, for which the activity coefficient stood at 430 ± 45 (313.15 K); 388 ± 41 (323.15 K); 354 ± 37 (333.15 K); 316 ± 33 (343.15 K); 294 ± 31 (353.15 K); 245 ± 26 (363.15 K).
As to `CCCCCCC` [heptane] + CCn1cc[n+](C)c1.COP(=O)([O-])OC, the activity coefficient (313.15 K) stood at 162 ± 17; the activity coefficient (323.15 K) came to 151 ± 16; the activity coefficient (333.15 K) came to 138 ± 15; the activity coefficient (343.15 K) turned out to be 124 ± 13; the activity coefficient (353.15 K) was found to be 111 ± 12; the activity coefficient (363.15 K) turned out to be 97.7 ± 10.
In the case of `Cc1ccc(C)cc1` [1,4-dimethylbenzene] + CCn1cc[n+](C)c1.COP(=O)([O-])OC, the activity coefficient is, setting by setting: (313.15 K) 12.1 ± 1.3; (323.15 K) 11.5 ± 1.2; (333.15 K) 10.9 ± 1.1; (343.15 K) 10.5 ± 1.1; (353.15 K) 9.99 ± 1.1; (363.15 K) 9.53 ± 1.
`C1CCCCC1` [cyclohexane] + CCn1cc[n+](C)c1.COP(=O)([O-])OC: the activity coefficient is 53.9 ± 5.7 (313.15 K); 48.9 ± 5.2 (323.15 K); 44 ± 4.6 (333.15 K); 40.6 ± 4.3 (343.15 K); 37.7 ± 4 (353.15 K); 32.9 ± 3.5 (363.15 K).
In the case of `CCCCCCCC` [octane] + CCn1cc[n+](C)c1.COP(=O)([O-])OC, the activity coefficient reads like this: (313.15 K) 202 ± 21; (323.15 K) 187 ± 20; (333.15 K) 173 ± 18; (343.15 K) 158 ± 17; (353.15 K) 144 ± 15; (363.15 K) 132 ± 14.
With `CCCCC` [pentane] + COP(=O)([O-])OC.Cn1cc[n+](C)c1, the activity coefficient reads like this: (313.15 K) 245 ± 26; (323.15 K) 230 ± 24; (333.15 K) 217 ± 23; (343.15 K) 201 ± 21; (353.15 K) 184 ± 19; (363.15 K) 170 ± 18.
